We go through ten molecules from PMC12121777 (PLOS One, 2025).

≈ marks a conversion by molar mass, not a printed value. Read-outs that look alike come from different tables or passages of the source.

The test system of experiment [1] is Mycobacterium kansasii 6509/96. Description: MIC, micro method in Šula's semisynthetic medium, M. kansasii clinical isolate. The format is cell-based. As to conditions: read-out: MIC M. kansasii 6509/96.
For experiment [2], the system named is Mtb 331/88 (i.e., H37Rv). In words: MIC, micro method in Šula's semisynthetic medium, drug-susceptible Mtb. The format is cell-based, Mycobacterium tuberculosis. As to conditions: Mycobacterium tuberculosis, H37RV.
The test system of experiment [3] is Mycobacterium avium 330/88. In words: MIC, micro method in Šula's semisynthetic medium, M. avium. The format is cell-based.
Where [4] appears, read: 330/88, 336 h, read-out: MIC M. avium 330/88.
Setting [5] is: 330/88, 504 h, read-out: MIC M. avium 330/88.

With `CCCCCCCCCCCCCCCCCCNc1nnc(-c2cc([N+](=O)[O-])cc([N+](=O)[O-])c2)o1` [Compound 5r, 5-(3,5-Dinitrophenyl)-N-octadecyl-1,3,4-oxadiazol-2-amine], the MIC in experiment [1] (6509/96, 168 h) is 64 µM (≈ 32.2 µg/mL); in experiment [1] (6509/96, 336 h) it was 64 µM (≈ 32.2 µg/mL); in experiment [1] (6509/96, 504 h) it was 64 µM (≈ 32.2 µg/mL); in experiment [2] (336 h, 14 days), > 32 µM; in experiment [2] (504 h, 21 days), > 32 µM; in experiment [3] (setting [4]), > 1000 µM. Further, the MIC was > 1000 µM in experiment [3] (setting [5]) and > 1000 µM in experiment [3] (330/88, read-out: MIC M. avium).

In the case of `O=[N+]([O-])c1cc(-c2nnc(NCc3ccccc3)o2)cc([N+](=O)[O-])c1` [Compound 7a, N-Benzyl-5-(3,5-dinitrophenyl)-1,3,4-oxadiazol-2-amine], the MIC came to 0.5 µM (≈ 0.171 µg/mL) in experiment [1] (6509/96, 168 h); 1 µM (≈ 0.341 µg/mL) in experiment [1] (6509/96, 336 h); 1 µM (≈ 0.341 µg/mL) in experiment [1] (6509/96, 504 h); 0.125 µM (≈ 0.0427 µg/mL) in experiment [2] (336 h, 14 days); 0.25 µM (≈ 0.0853 µg/mL) in experiment [2] (504 h, 21 days); 4 µM (≈ 1.37 µg/mL) in experiment [3] (setting [4]). For the same molecule, in experiment [3] (setting [5]), the MIC came out at 4 µM (≈ 1.37 µg/mL).

For the molecule `COc1ccc(CNc2nnc(-c3cc([N+](=O)[O-])cc([N+](=O)[O-])c3)o2)cc1` [Compound 7b, 5-(3,5-Dinitrophenyl)-N-(4-methoxybenzyl)-1,3,4-oxadiazol-2-amine], the MIC is ≤ 0.03 µM in experiment [1] (6509/96, 168 h); ≤ 0.03 µM in experiment [1] (6509/96, 336 h); ≤ 0.03 µM in experiment [1] (6509/96, 504 h); ≤ 0.03 µM in experiment [2] (336 h, 14 days); ≤ 0.03 µM in experiment [2] (504 h, 21 days); 2 µM (≈ 0.743 µg/mL) in experiment [3] (setting [4]). The MIC in experiment [3] (setting [5]) was 2 µM (≈ 0.743 µg/mL).

Take `O=[N+]([O-])c1cc(-c2nnc(NCc3ccc(Cl)cc3)o2)cc([N+](=O)[O-])c1` [Compound 7c, N-(4-Chlorobenzyl)-5-(3,5-dinitrophenyl)-1,3,4-oxadiazol-2-amine]: the MIC is 0.125 µM (≈ 0.047 µg/mL) in experiment [1] (6509/96, 168 h); 0.125 µM (≈ 0.047 µg/mL) in experiment [1] (6509/96, 336 h); 0.25 µM (≈ 0.0939 µg/mL) in experiment [1] (6509/96, 504 h); 0.125 µM (≈ 0.047 µg/mL) in experiment [2] (336 h, 14 days); 0.125 µM (≈ 0.047 µg/mL) in experiment [2] (504 h, 21 days); 1 µM (≈ 0.376 µg/mL) in experiment [3] (setting [4]). Also, the MIC in experiment [3] (setting [5]) is 2 µM (≈ 0.751 µg/mL).

For the molecule `O=[N+]([O-])c1cc(-c2nnc(NCc3ccc(Cl)cc3Cl)o2)cc([N+](=O)[O-])c1` [Compound 7d, N-(2,4-Dichlorobenzyl)-5-(3,5-dinitrophenyl)-1,3,4-oxadiazol-2-amine], the MIC in experiment [1] (6509/96, 168 h) stood at 0.06 µM (≈ 0.0246 µg/mL); in experiment [1] (6509/96, 336 h), 0.125 µM (≈ 0.0513 µg/mL); in experiment [1] (6509/96, 504 h), 0.125 µM (≈ 0.0513 µg/mL); in experiment [2] (336 h, 14 days), 0.06 µM (≈ 0.0246 µg/mL); in experiment [2] (504 h, 21 days), 0.125 µM (≈ 0.0513 µg/mL); in experiment [3] (setting [4]) it was 1 µM (≈ 0.41 µg/mL). The MIC in experiment [3] (setting [5]) was determined as 1 µM (≈ 0.41 µg/mL).

With `O=[N+]([O-])c1cc(-c2nnc(NCc3ccc(Br)cc3)o2)cc([N+](=O)[O-])c1` [Compound 7e, N-(4-Bromobenzyl)-5-(3,5-dinitrophenyl)-1,3,4-oxadiazol-2-amine], the MIC came to 0.25 µM (≈ 0.105 µg/mL) in experiment [1] (6509/96, 168 h); 0.5 µM (≈ 0.21 µg/mL) in experiment [1] (6509/96, 336 h); 0.5 µM (≈ 0.21 µg/mL) in experiment [1] (6509/96, 504 h); 0.25 µM (≈ 0.105 µg/mL) in experiment [2] (336 h, 14 days); 0.25 µM (≈ 0.105 µg/mL) in experiment [2] (504 h, 21 days); 2 µM (≈ 0.84 µg/mL) in experiment [3] (setting [4]). In addition, in experiment [3] (setting [5]), the MIC was determined as 4 µM (≈ 1.68 µg/mL).

In the case of `COc1ccc(CNc2nnc(-c3cc([N+](=O)[O-])cc([N+](=O)[O-])c3)s2)cc1` [Compound 8b, 5-(3,5-Dinitrophenyl)-N-(4-methoxybenzyl)-1,3,4-thiadiazol-2-amine], the MIC in experiment [1] (6509/96, 168 h) was 0.06 µM (≈ 0.0232 µg/mL); in experiment [1] (6509/96, 336 h) it was 0.06 µM (≈ 0.0232 µg/mL); in experiment [1] (6509/96, 504 h), 0.125 µM (≈ 0.0484 µg/mL); in experiment [2] (336 h, 14 days) it was ≤ 0.03 µM; in experiment [2] (504 h, 21 days) it was ≤ 0.03 µM; in experiment [3] (setting [4]), 4 µM (≈ 1.55 µg/mL). Besides, in experiment [3] (setting [5]), the MIC came out at 4 µM (≈ 1.55 µg/mL).

For the molecule `O=[N+]([O-])c1cc(-c2nnc(NCc3ccc(Cl)cc3)s2)cc([N+](=O)[O-])c1` [Compound 8c, N-(4-Chlorobenzyl)-5-(3,5-dinitrophenyl)-1,3,4-thiadiazol-2-amine], the MIC was 0.06 µM (≈ 0.0235 µg/mL) in experiment [1] (6509/96, 168 h); 0.125 µM (≈ 0.049 µg/mL) in experiment [1] (6509/96, 336 h); 0.125 µM (≈ 0.049 µg/mL) in experiment [1] (6509/96, 504 h); ≤ 0.03 µM in experiment [2] (336 h, 14 days); ≤ 0.03 µM in experiment [2] (504 h, 21 days); 2 µM (≈ 0.784 µg/mL) in experiment [3] (setting [4]). Also, the MIC in experiment [3] (setting [5]) was 2 µM (≈ 0.784 µg/mL).

With `O=[N+]([O-])c1cc(-c2nnc(NCc3ccc(Cl)cc3Cl)s2)cc([N+](=O)[O-])c1` [Compound 8d, N-(2,4-Dichlorobenzyl)-5-(3,5-dinitrophenyl)-1,3,4-thiadiazol-2-amine], the MIC turned out to be 0.25 µM (≈ 0.107 µg/mL) in experiment [1] (6509/96, 168 h); 0.5 µM (≈ 0.213 µg/mL) in experiment [1] (6509/96, 336 h); 0.5 µM (≈ 0.213 µg/mL) in experiment [1] (6509/96, 504 h); 0.125 µM (≈ 0.0533 µg/mL) in experiment [2] (336 h, 14 days); 0.125 µM (≈ 0.0533 µg/mL) in experiment [2] (504 h, 21 days); 2 µM (≈ 0.852 µg/mL) in experiment [3] (setting [4]). In addition, the MIC in experiment [3] (setting [5]) was 2 µM (≈ 0.852 µg/mL).

For `CCCCCCCCCCCCSc1nnc(-c2cc([N+](=O)[O-])cc([N+](=O)[O-])c2)o1` [Compound 10, 2-(3,5-Dinitrophenyl)-5-(dodecylthio)-1,3,4-oxadiazole], the MIC in experiment [1] (6509/96, 168 h) came out at 2 µM (≈ 0.873 µg/mL); in experiment [1] (6509/96, 336 h) it was 4 µM (≈ 1.75 µg/mL); in experiment [1] (6509/96, 504 h), 8 µM (≈ 3.49 µg/mL); in experiment [2] (336 h, 14 days), 8 µM (≈ 3.49 µg/mL); in experiment [2] (504 h, 21 days), 8 µM (≈ 3.49 µg/mL); in experiment [3] (setting [4]), 500 µM (≈ 218 µg/mL). Moreover, the MIC in experiment [3] (setting [5]) was 500 µM (≈ 218 µg/mL).
